Assay [1] deals with HbS erythrocytes. The conditions noted are these: literature (15, 16); cited from earlier work.
In assay [2] the test system is HbS erythrocytes. Kind of assay: Inhibition of sickling of intact erythrocytes at low oxygen tension. The conditions noted are these: for sickling of deoxygenated erythrocytes: microscope, formalin-fixed. Type of assay: cell-based, human. As to the method: The procedure used was essentially that of Cerami and Manning (15). The source of the red cells was human blood in which HbS represented essentially 100% of the total hemoglobin as determined by electrophoresis on a cellulose acetate membrane in a Supre-Heme® Tris-EDTA-boric acid buffer (Helena Laboratories, Beaumont, Tex.).
Ten microliters of blood was diluted to 5 ml with PBS and 1 ml aliquots were distributed into the same type of cuvettes used to study hemoglobin S aggregation (see above). Two #25 hypodermic needles were inserted into each plastic diaphragm and nitrogen was passed over the surface of the erythrocyte suspension for 15 minutes with periodic gentle shaking. The hypodermic needles were removed and the sealed cuvettes were left for 2 hours at room temperature. The control cuvette was treated identically except that the cap was loosened for the 2 hour period.
Then 250 μl of 10% buffered formalin (Metpath) was added to the cell suspensions, which were allowed to stand at room temperature for 15 minutes. The cell suspensions were then sedimented by centrifugation, suspended in 100 μl of PBS and examined under the microscope.

The target in the next assay is T1, hemoglobin S (Homo sapiens, UniProt P68871+P69905, E7V).
T1 construct: from tissue; host or cells: blood / erythrocytes of a subject with sickle cell disease (inferred from the general method)
As to the kind of experiment: Inhibition of aggregation of deoxygenated hemoglobin S (turbidity at 700 nm). It counts as biochemical. The conditions noted are these: low oxygen tension, 1.8M phosphate buffer, 30° C. As to the method: Inhibition of Aggregation of Hemoglobin S
To a 10 mm cuvette (Type 9GL14S, Septum seal, Uvonic Instruments, Plainview, N.Y. 11803) containing 0.9 ml of 1.8M phosphate buffer, pH 9.4, was added 5 mg of Na2S203. The cuvette was capped and two #25 hypodermic needles were inserted through the soft plastic seals. Nitrogen was passed over the surface of the solution for 15 minutes to drive off oxygen; the cuvette was then gently shaken to dissolve the Na2S203. The cuvette was then placed in an ice bath to bring the solution to 4° C. and 0.1 ml of a 2 g/dl HbS solution (13, 14) was added through the plastic diaphragm with a Hamilton air-tight syringe. The temperature of the solution in the cuvette was raised by placing it in a 30° C. bath and then into a spectrophotometer in which the increase in turbidity was measured with time at 700 nm. […] The latter was extracted with phosphate buffer from tablets of Valtrex (Glaxo Wellcome).

Another assay addresses human hemoglobin (Homo sapiens, UniProt P68871+P69905). The conditions noted are these: personal communication; cited from earlier work.

With `N#C[O-].[K+]` [KCNO], the “concentration used to inhibit sickling” value in the assay with HbS erythrocytes [1] is 2.4 mg/mL. The “concentration relative to the effective concentration of acyclovir” value in the assay with HbS erythrocytes [2] (KCNO 2.4 mg/ml versus acyclovir (FIG. 2)) is “more than 10 ×”.
Take `CC(C)[C@H](N)C(=O)OCCOCn1cnc2c(=O)[nH]c(N)nc21` [valacyclovir, L-valine, 2-[(2-amino-1,6-dihydro-6-oxo-9H-purin-9-yl)methoxy]ethyl ester]: the “in vitro aggregation of HbS” value at hemoglobin S is recorded as “inhibiting”.
Take `Nc1nc2c(ncn2COCCO)c(=O)[nH]1` [acyclovir, 2-amino-1,9-dihydro-9-[(2-hydroxyethoxy)methyl]-6H-purin-6-one]: the results for the “sickling of deoxygenated erythrocytes” value with HbS erythrocytes [2] (0.2 mg/ml), in the assay on HbS erythrocytes [2] (0.3 mg/ml) and in the assay on HbS erythrocytes [2] (0.4 mg/ml) were “Minimal sickling”, “Minimal sickling” and “essentially no sickling”, respectively. Besides, in the assay with HbS erythrocytes [2] (lowest concentration (FIG. 2B, 0.2 mg/ml)), the “proportion of sickling cells” value is reported as “below 60%”. The “in vitro aggregation of HbS” value at hemoglobin S was “inhibiting”. Further, on human hemoglobin, the “change in Hill coefficient” value was “no significant change”. Also, the “change in oxygen affinity” value at human hemoglobin was “no significant change”.
